Measurements as given in patent US20240226049A1, “METHODS OF TREATMENT USING BEMPEDOIC ACID” (Esperion Therapeutics, Inc., priority 2023, published 2024).

Key:
[1] = system: primary prevention patients unable to tolerate recommended doses of statins; assay: CLEAR OUTCOMES primary prevention subgroup (Example 2): effects on LDL cholesterol and hsCRP; type: in vivo, human
Protocol: The rationale, design and methods of the CLEAR Outcomes trial is described in Example 1. The trial was conducted at 1250 sites in 32 countries and designed by the Cleveland Clinic Coordinating Center for Clinical Research (C5Research) and an academic Executive Committee in collaboration with the sponsor. The protocol was approved by ethics committees at participating sites and all patients provided written informed consent before enrollment. A contract research organization collected the data which were transferred to C5Research at completion of the trial whose statisticians conducted the analyses described herein. An independent Data Monitoring Committee monitored the trial.
Primary prevention patients 18 to 85 years of age with an LDL cholesterol ≥100 mg/dL with clinical features placing them at high risk for a first cardiovascular event were eligible. Criteria for high cardiovascular risk included risk scores, such as the Reynolds Risk Score and the SCORE project (Ridker et al., Development and validation of improved algorithms for the assessment of global cardiovascular risk in women: the Reynolds Risk Score, JAMA. 2007 Feb. 14; 297(6):611-9; Ridker et al., C-reactive protein and parental history improve global cardiovascular risk prediction. The Reynolds Risk Score for men, Circulation. 2008; 118: 2243-2251; European Guidelines on CVD Prevention in Clinical Practice. 2016. Eur J Prev Cardiol. 2016 July; 23(11):NP1-NP96), a coronary artery calcium score >400 Agatston units (AU) or presence of either type 1 or 2 diabetes in women aged >65 years or men older than 60 years.
Investigators were responsible for assessing the patient for statin intolerance. Patients had to report statin intolerance due to an adverse effect that started or increased during statin therapy and resolved or improved after statin therapy was discontinued. Entry criteria required inability to tolerate 2 or more statins at any dose or 1 statin and unwillingness to attempt a second statin or advised by a physician not to attempt taking a second statin. Both the patient and site investigator were required to provide written confirmation that the patient was statin intolerant and aware of the benefits of statins to reduce the risk of cardiovascular events, including death, and acknowledge that many patients who are unable to tolerate a statin can tolerate a different statin or dose. Patients could be enrolled if they tolerated a very low average daily statin dose defined as rosuvastatin <5 mg, atorvastatin <10 mg, simvastatin <10 mg, lovastatin <20 mg, pravastatin <40 mg, fluvastatin <40 mg, or pitavastatin <2 mg. Other background lipid-lowering therapies were permitted, including ezetimibe, niacin, bile acid resins, fibrates, and/or proprotein convertase subtilisin kexin type 9 (PCSK9) inhibitors.
Eligible patients entered a 4-week run-in period during which patients were treated with single-blind placebo. If patients were intolerant to placebo treatment or if adherence was <80% by tablet count, they were not eligible for randomization. Patients who successfully completed the run-in period were randomly assigned in a 1:1 ratio to receive a 180 mg oral dose of bempedoic acid or matching placebo, administered daily. During the trial, LDL cholesterol and hsCRP results were masked. Beginning 6 months after randomization, the central laboratory notified the investigator, who remained blinded to treatment assignment, if the patient's LDL cholesterol level was ≥25% higher than baseline. Repeat testing was performed after the patient was counseled about diet and encouraged to take all medications as prescribed. The patient returned for a repeat fasting blood lipid profile to confirm whether the LDL cholesterol value exceeded the threshold criteria. If confirmed, the patient's treatment regimen for LDL cholesterol lowering could be adjusted, per standard of care and local practice. […]

[2] = system: statin-intolerant patients with or at high risk of CVD; assay: CLEAR OUTCOMES trial (Example 1): effect on LDL-cholesterol, hsCRP, other lipids and glycaemic biomarkers; type: in vivo, human
From the text: The CLEAR OUTCOMES trial was a randomized, placebo-controlled, double-blind trial that enrolled patients at 1250 sites in 32 countries. An independent Data Monitoring Committee reviewed safety and efficacy data during the trial.
Patients 18 to 85 years of age were eligible for enrollment if they met either of two criteria for increased cardiovascular risk, a prior cardiovascular event (secondary prevention) or clinical features that placed them at high risk for a cardiovascular event (primary prevention). (Nicholls S. Lincoff A M, Bays H E, et al. Rationale and design of the CLEAR-outcomes trial: Evaluating the effect of bempedoic acid on cardiovascular events in patients with statin intolerance. Am Heart J. 2021 May; 235:104-112) All patients provided written informed consent. Patients had to report statin intolerance due to an adverse effect that started or increased during statin therapy and resolved or improved after statin therapy was discontinued. Patients could be enrolled if they tolerated a very low average daily statin dose (e.g., an average daily dose of rosuvastatin <5 mg, atorvastatin <10 mg, simvastatin <10 mg, lovastatin <20 mg, pravastatin <40 mg, fluvastatin <40 mg, or pitavastatin <2 mg). Other lipid-lowering therapies were permitted, including ezetimibe, niacin, bile acid resins, fibrates, and/or proprotein convertase subtilisin kexin type 9 (PCSK9) inhibitors. Full inclusion and exclusion criteria are provided in Nicholls et al. (Am Heart J. 2021).
Eligible patients entered a 4-week run-in period during which patients were treated with single-blind placebo. If patients were intolerant to placebo treatment or if adherence was <80% by tablet count, they were not eligible for randomization. Patients who successfully completed the run-in period were randomly assigned in a 1:1 ratio to receive bempedoic acid at an oral dose of 180 mg or matching placebo, administered daily. Beginning 6 months after enrollment, the central laboratory notified the investigator if the patient's LDL-cholesterol level was ≥25% higher than baseline. These patients were counseled on healthy dietary guidelines and reminded to take all lipid-regulating medications. If repeat testing confirmed that LDL-cholesterol value met the threshold criteria, the provider could adjust the lipid-lowering treatment regimen per standard of care and local guidelines.
This was an event-driven trial designed to provide at least 90% power to detect a 15% relative risk reduction for the primary composite end point at an overall two-sided significance level of 0.05. The trial required a minimum of 1620 primary composite events with ≥24 months of follow-up for all patients and at least 810 first key secondary end points. The average treatment duration was estimated to be 42 months and a lost-to-follow-up rate of 1% per year. Assuming a 3.59% annual event rate in the placebo group, enrollment of 12,600 patients was required, subsequently amended to 14,000. There were no interim efficacy analyses. A hierarchical approach was prespecified to evaluate sequentially each of the six key secondary efficacy end points with statistical significance at each step required to test the next hypothesis, thereby preserving the study-wise Type I error rate at 5%. All analyses were based on the intent-to-treat principle. The primary efficacy end point was analyzed using Cox proportional hazards model with treatment as a factor to generate the hazard ratio (HR) and 95% confidence interval (CI). The p-value was obtained from a log-rank test.

[3] = primary prevention subgroup, vs placebo
[4] = primary prevention, after 12 months treatment
[5] = primary prevention, baseline mean 142.2 mg/dL
[6] = baseline mean 139.0 mg/dL, full population

`CC(C)(CCCCCC(O)CCCCCC(C)(C)C(=O)O)C(=O)O` [Bempedoic Acid, Bempedoic acid] was tested. Which “time-averaged difference in LDL cholesterol over the course of the trial” value [1, 3] did it give?
Its value is 23.2 mg/dL.

And the “time-averaged difference in LDL cholesterol over the duration of the trial, percent” value [1, 3]?
Its value is 16.3%.

What about the “difference in hsCRP reduction compared with placebo” value [1, 4] of the same molecule?
Its value is 0.56 mg/L.

What about the “difference in hsCRP reduction compared with placebo, percent” value [1, 4] of the same molecule?
Its value is 21.5%.

What about the “LS mean difference in LDL cholesterol compared with placebo after 6 months, percent” value [1, 5] of the same molecule?
The value was 21.3%.

And the “LS mean reduction in LDL cholesterol compared with placebo after 6 months of treatment” value [1, 5]?
Its value is 30.2 mg/dL.

And the “reduction of hsCRP after 12 months treatment” value ([1]; primary prevention, median baseline 2.4 mg/L, bempedoic acid group)?
The value was 0.34 mg/L.

What about the “placebo-subtracted reduction in LDL-cholesterol after 6 months of treatment” value [2, 6] of the same molecule?
The value was 29.2 mg/dL.

What about the “placebo-subtracted reduction in LDL-cholesterol after 6 months of treatment, percent” value [2, 6] of the same molecule?
The value was 21.1%.

What about the “Change from baseline to month 12 in HbA1C in patients with inadequately controlled type 2 diabetes mellitus, Difference” value ([2]; bempedoic acid vs placebo) of the same molecule?
Its value is −0.03%.

What about the “Change from baseline to Month 6 in HbA1c (%), All patients” value ([2]; observed mean ± SD) of the same molecule?
Its value is −0.003 ± 0.6^ %.

And the “Change from baseline to Month 6 in HbA1c (%), Inadequately Controlled Diabetes at Baseline” value ([2]; observed mean ± SD)?
Its value is −0.20 ± 1.0%.

And the “Change from baseline to Month 12 in HbA1c (%), All patients” value ([2]; observed mean ± SD)?
The value was 0.04 ± 0.74%.

What about the “Change from baseline to Month 12 in HbA1c (%), Inadequately Controlled Diabetes at Baseline” value ([2]; observed mean ± SD) of the same molecule?
The value was −0.06 ± 1.3%.

What about the “decrease in LDL-C as compared to baseline” value ([2]; prior to initial administration as baseline) of the same molecule?
The value was “about 21%”.

And the “time-averaged reduction in LDL-cholesterol, percent” value ([2]; vs placebo, over the trial, full population)?
Its value is 15.9%.
